This note sets out measurements from a melting point compilation (Tetko et al.; mined from patent text by program, amines drawn as free bases though some values may be those of a salt).

Each structure is given as a SMILES string.

`Cn1cc(C(=O)NCc2ccc(Cl)cc2)c(=O)c2cc(CN3CCOCC3)cc(C#CCn3cnc(Cl)c3Cl)c21` had a melting point of 178 to 181 °C.

In turn, `CCCc1ccc(-c2ccc3c(c2)C=C(C(=O)OC)CCS3(=O)=O)cc1` yielded a melting point of 155 to 156 °C.

In turn, `Cc1cccc(C)c1SC(CC(C)C)c1c(O)cc(-c2ccccc2)oc1=O` (configuration not stated) displayed a melting point of 166 to 167 °C.

In the case of `O=[N+]([O-])c1ccc2c(c1)C(c1ccccn1)=CC(C(F)(F)F)(C(F)(F)F)O2`, the melting point fell in the range of 105 to 107 °C.

On to `Cc1oc(-c2ccco2)nc1COc1cccc(COc2nn(Cc3ccccc3)cc2C=O)c1`, for which the melting point fell in the range of 135 to 136 °C.

The compound `CC1CN(c2ncc(Br)cc2C=O)CC1C` (configuration not stated) gave a melting point of 98.5 to 99.5 °C.

In turn, `CCOC(=O)C1[C@H]2O[C@@H]3COC(C)(C)O[C@H]3C(=NO)[C@@H]12` (some centres not stated) had a melting point of 210 to 213 °C.

Turning to `Cn1cnc(=S)c(-c2cccc(C(F)(F)F)c2)c1`, the melting point is 197 to 200 °C.

Consider `CCCc1cc(Cl)c2oc(C(=O)OCc3ccccc3)c(C)c2c1O`, for which the melting point is 119 to 120 °C.

For `CCc1cc(C(=O)c2ccccc2Cl)c(-n2nnnc2CNC(=O)c2cc3ccccc3[nH]2)s1`, the melting point fell in the range of 146 to 149 °C.

`O=S1(=O)c2cccc3cccc(c23)N1CCCN1CCN(c2ccccn2)CC1` displayed a melting point of 101 °C.

For `O=C(c1cccs1)c1cnn2c(-c3ccc(F)c(N(C(=O)OCC(Cl)(Cl)Cl)C(=O)OCC(Cl)(Cl)Cl)c3)ccnc12`, the melting point lay within 94 to 97 °C.

Consider `CC(Oc1ccc(C(=O)c2ccc(O)cc2)c(Cl)c1Cl)C(=O)O` (configuration not stated), for which the melting point lay in the range of 208 to 212 °C.

`CC(C)c1n[nH]c2c(NCc3ccco3)ncnc12` came in with a melting point of 179 to 182 °C.

`Clc1cccc2c1c(Cl)nc1c(-c3nc(C4CC4)no3)ncn12`: the melting point was 238 to 240 °C.

With `O=C(NNC(=S)Nc1cccc(Br)c1)c1cccc([N+](=O)[O-])c1`, the melting point is 163 to 165 °C.

As for `NS(=O)(=O)c1ccc(NC(=O)c2cc(F)ccc2SSc2ccc(F)cc2C(=O)Nc2ccc(S(N)(=O)=O)cc2)cc1`, the melting point was > 300 °C.

As to `O=S1(=O)Cc2ccc(Cl)cc2C(c2ccc(F)cc2)=NN1`, the melting point is 195 to 198 °C.

In turn, `COc1cc(Cn2cnc3cccnc32)ccc1C(=O)N(C1CCCC1)C1CC(C)CC(C)C1` (configuration not stated) yielded a melting point of 80 to 82 °C.

`CC(=O)Nc1ncc(Sc2ccc(NS(C)(=O)=O)cc2)s1`: the melting point lay within 236 to 239 °C.

Regarding `CC1(C)C2CCC3(C)C(C2)C(=O)CCC13O` (configuration not stated), the melting point lay within 120 to 123 °C.

The compound `C[C@H](C#Cc1sccc1Cc1ccc(F)cc1)N(O)C(N)=O` registered a melting point of 99 to 100 °C.

Regarding `COc1ccc(-n2nc(Sc3ccc(Cl)cc3)c(C)c(C#N)c2=O)cc1`, the melting point lay in the range of 146 to 148 °C.

For `CC(=O)N1Cc2c(n(-c3cccc(Cl)c3)c3ncccc3c2=O)C1`, the melting point was in the range of 170 to 173 °C.

The compound `CS(=O)(=O)c1cc(-c2nc(=O)c3ccccc3s2)ccn1` came in with a melting point of 190 to 192 °C.

As for `O=Cc1c(O)cccc1OCc1cccc(C(=O)O)c1`, the melting point fell in the range of 209 to 211 °C.

As for `O=c1c2c[nH]c3ccccc3c-2nn1-c1cnc2ccccc2c1`, the melting point was > 350 °C.

Regarding `COc1ccc(Cl)cc1N1C(=O)CON(C)C1=S`, the melting point is 189 to 191 °C.

In the case of `CC(=O)C1CCC2C3CCC4CC(O)C(N5CCOC(Cc6ccccc6)C5)CC4(C)C3C(=O)CC12C` (configuration not stated), the melting point was 160 to 162 °C.

`Cc1ccccc1CNC(=O)c1cc(C)c([N+](=O)[O-])c(C)c1` registered a melting point of 202 to 203 °C.

Consider `O=C(N[C@@H](CO)c1nc2cc(Br)ccc2[nH]1)c1ccc(C(=O)N2CCCC2)c(Br)c1`, for which the melting point was 114 to 116 °C.

As to `C[C@H](C=C[C@H](C)[C@H](C)CO)[C@H]1CC[C@H]2C3=CCC4CC(=O)CC[C@]4(C)[C@H]3CC[C@]12C` (some centres not stated), the melting point lay in the range of 192 to 193 °C.

`CCc1nc2c(-c3ccc(Cl)cc3Cl)nnc(C)c2n1C(CC)CC` displayed a melting point of 63 to 64 °C.

Compound `c1ccc(-c2cc(-c3ccc(-c4nccc5ccccc45)cc3)cc(-c3nc(-c4ccccc4)nc(-c4ccccc4)n3)c2)cc1` had a melting point of 280 °C.

In turn, `CC(O)c1cccc(NC(=O)NCC(=O)N(c2ccccc2)C(C)C(=O)N2CCCC(C)(C)C2)c1` (mixture of isomers) displayed a melting point of 186 °C.

On to `COC(=O)c1ccc(CNC(=O)c2[nH]c(-c3cccs3)cc2-c2ccc(F)cc2)cn1`, for which the melting point fell in the range of 174 to 175 °C.

Turning to `O=C(CCc1oc(-n2cnc3ccccc32)nc1-c1ccc(Cl)cc1)N1CCS(=O)(=O)C1`, the melting point lay in the range of 136 to 137 °C.

In the case of `O=C(O)CC1c2ccccc2C=Cc2ccccc21`, the melting point was in the range of 167 to 168 °C.

`OCc1cc2occc2cn1`: the melting point lay within 72 to 74 °C.

`CNC(=O)c1ccc2ccccc2c1` yielded a melting point of 108 to 109 °C.

The compound `COC(=O)c1cc(=O)c2oc3ccccc3c(=O)c2n1C` yielded a melting point of 290 to 293 °C.

Consider `O=C(c1ccc(Cl)cc1)c1ccc2nc(Cl)cc(CCc3cccc(Cl)c3)c2c1`, for which the melting point came out at 180 °C.

As for `O=S1(=O)N=CN(C2CC2)c2cc(Br)c(C(F)(F)F)cc21`, the melting point was in the range of 204 to 206 °C.

`CCOc1ccc2c(c1)n(CCN(C(C)C)C(C)C)c(=O)n2S(=O)(=O)c1ccc(OC)cc1OC` returned a melting point of 132 °C.

On to `CC(C)(O)C(O)c1ccc(-c2ccc(C(CC3CCOCC3)c3ccc(S(C)(=O)=O)c(Cl)c3)[nH]2)nc1` (configuration not stated), for which the melting point was in the range of 138 to 140 °C.

For the compound `CCCCC1=CC(=C(Br)Br)N(Cc2ccccc2)C1=O`, the melting point lay in the range of 56 to 58 °C.

`O=C1N(Cc2ccccn2)c2c(F)cccc2C12COc1cc3c(cc12)OCCO3` (configuration not stated): the melting point lay in the range of 205 to 207 °C.

In the case of `CS(=O)(=O)c1ccc(C[C@@H](N)[C@H](O)C(=O)C2(C(=O)O)CC2N)cc1` (some centres not stated), the melting point lay within 256 to 258 °C.

Take `COc1ccccc1Cc1ccc(C(=O)C2=C(O)C(=O)N(C(C)C)C2)o1`: the melting point is 123 to 124 °C.

Compound `CCOC(=O)C1(C(=O)OCC)Cc2ccc(OC)c(Cl)c2O1` registered a melting point of 97 to 99 °C.

`O=C(NCCCN1CCC(c2ccccn2)CC1)N1C(=O)OCC1c1ccc(F)c(F)c1` (configuration not stated) came in with a melting point of 142 to 144 °C.

`COc1cc(NC(=O)CC(C)=O)c(OC)cc1Cl` returned a melting point of 105 to 106 °C.

Take `CC(=O)OCC1OC(n2c3ncccc3c3c4c(c5c6cccnc6[nH]c5c32)C(=O)N(C)C4=O)C(OC(C)=O)C(OC(C)=O)C1OC(C)=O` (configuration not stated): the melting point was > 300 °C.

Regarding `CC1(C)OCC(Cn2c(=O)sc3c(=O)[nH]c(N)nc32)O1` (configuration not stated), the melting point is 222 to 225 °C.

Compound `CCCCOCCOc1ccc(-c2ccc(N3CCC(C)CC3)c(C=C(C)C(=O)O)c2)cc1` returned a melting point of 154 to 155 °C.

In turn, `CCCC1=C(C#N)C(c2ccccc2Cl)c2c(n[nH]c2CCC)N1` (configuration not stated) registered a melting point of 237 °C.

For the compound `COc1cc(N)c(C(=O)N(C)C)cc1OC`, the melting point is 94 to 103 °C.

Turning to `CCN(CC)C(=O)C(=O)c1c[nH]c2c1ccc1c3ccccc3[nH]c12`, the melting point was > 295 °C.

Turning to `CCn1c(=N)c(F)cn(S(=O)(=O)c2ccccc2)c1=O`, the melting point lay within 163 to 166 °C.

In turn, `Oc1cccc(-c2nc3ccccc3s2)c1` gave a melting point of 110 °C.

Consider `CC1=Nc2c(-c3ccncc3)c(-c3ccc(F)cc3)nn2C(C)(C)C1`, for which the melting point fell in the range of 171 to 173 °C.

Consider `Nc1cc(C(=O)O)cc(OCc2ccccn2)c1C(=O)c1ccccc1`, for which the melting point was in the range of 212 to 213 °C.

In turn, `O=C1OC(CCCCN2CCN(c3ccccc3)CC2)CN1c1ccccc1` (configuration not stated) came in with a melting point of 83 to 85 °C.

For `CC(C)(C)OC(=O)Nc1cc(OC(C)(C)C)c(C#Cc2ccc(F)cc2)cc1N`, the melting point amounted to 183 °C.

`O=C(O)c1cn2c3c(cc(F)cc3c1=O)CCC2C(F)(F)F` (configuration not stated) displayed a melting point of 295 to 297 °C.

`COc1ccc2nc3ccc(C(N)=O)cn3c(=O)c2c1`: the melting point is > 310 °C.

Regarding `CC(=O)Nc1nc(-c2ccc(F)c3ccccc23)cc(C(C)C)n1`, the melting point lay in the range of 115 to 117 °C.

On to `CCCCCCCc1ccc(OC(=O)c2cc3c(s2)CC(CCCCC)C3)cc1` (configuration not stated), for which the melting point was found to be 64 °C.

With `N#Cc1ccc(-c2ccc3ccccc3c2)cc1Cn1cncn1`, the melting point lay in the range of 119 to 121 °C.

`CS(=O)(=O)c1ccc(-n2nc(C(F)(F)F)nc2-c2ccc(Br)cc2)nn1` yielded a melting point of 174 to 181 °C.

The compound `CN=C=Nc1ccccc1N1CCOCC1` displayed a melting point of 67 to 68 °C.

In turn, `Cc1cc(F)cc([N+](=O)[O-])c1C#N` showed a melting point of 61 to 63 °C.

On to `CCCc1c(OCC2(Sc3ccc(C(=O)CCC(=O)O)cc3)CCCCC2O)ccc(C(C)=O)c1O` (configuration not stated), for which the melting point lay within 65 to 67 °C.

`N#Cc1ccc(S)c(C#N)c1` had a melting point of 180 °C.

`CCCCCCc1oc(C=Cc2ccccc2)nc1CC(=O)O` registered a melting point of 107 to 108 °C.

`Cn1cc2c(=O)[nH]c(=O)[nH]c2n1` displayed a melting point of 200 °C.

As for `O=C1COCC(=O)NCCOCCN1`, the melting point is 180 to 181 °C.

`CCc1ccc(COc2ccc(CC(NC(=O)c3cn4ccc(-c5ccc(Cl)cc5)cc4n3)C(=O)O)cc2)cc1` (configuration not stated) had a melting point of 245 °C.

As for `Cc1cc(-c2cccc(C3=Nc4cc(N5CCCC5)c(C#N)cc4NC(=O)C3)c2)on1`, the melting point is 267 °C.

`CN(C)c1cc(CC(=O)O)cc(Cc2nc3c(F)c(F)cc(F)c3s2)c1`: the melting point was in the range of 114 to 115 °C.

`O=S1(=O)N=CN(C2CC2)c2cc(F)cc(Cl)c21`: the melting point lay in the range of 252 to 255 °C.

With `CN(C)C(=O)CNC(=O)c1ccc(-c2ccc3nnn(Cc4ccc5ncccc5c4)c3n2)cc1F`, the melting point was in the range of 177 to 179 °C.

Take `COC1C(OC(=O)c2ccccc2)C=C(C)C(=O)CC1(C)C` (configuration not stated): the melting point is 97 to 98 °C.

`CCCCC(=O)c1ccc(O)c(Cl)c1Cl` showed a melting point of 107 to 110 °C.

Turning to `Cc1cccc(Nc2ccc(-c3ccccc3)cc2)c1`, the melting point is 95 °C.

`CC(=O)SC1(C(=O)O)CCCC1` yielded a melting point of 120 to 122 °C.

With `CC(=O)N(CCCC(=O)c1ccccc1)C(C)C`, the melting point was in the range of 36 to 39 °C.
